From patent US20250034216A1, “STEREOSELECTIVE COVALENT LIGANDS FOR ONCOGENIC AND IMMUNOLOGICAL PROTEINS” (The Scripps Research Institute, priority 2021, published 2025)

Legend:
[1] = biological target: T1, HARS2_C173 (Homo sapiens, UniProt P49590); test: IA-DTB cysteine engagement; type: binding; details: 22Rv1 cells, 20 μM probe, 1 h, relative to DMSO
T1 construct: endogenous in cells; host or cells: 22Rv1
T1 sequence (P49590 34-506): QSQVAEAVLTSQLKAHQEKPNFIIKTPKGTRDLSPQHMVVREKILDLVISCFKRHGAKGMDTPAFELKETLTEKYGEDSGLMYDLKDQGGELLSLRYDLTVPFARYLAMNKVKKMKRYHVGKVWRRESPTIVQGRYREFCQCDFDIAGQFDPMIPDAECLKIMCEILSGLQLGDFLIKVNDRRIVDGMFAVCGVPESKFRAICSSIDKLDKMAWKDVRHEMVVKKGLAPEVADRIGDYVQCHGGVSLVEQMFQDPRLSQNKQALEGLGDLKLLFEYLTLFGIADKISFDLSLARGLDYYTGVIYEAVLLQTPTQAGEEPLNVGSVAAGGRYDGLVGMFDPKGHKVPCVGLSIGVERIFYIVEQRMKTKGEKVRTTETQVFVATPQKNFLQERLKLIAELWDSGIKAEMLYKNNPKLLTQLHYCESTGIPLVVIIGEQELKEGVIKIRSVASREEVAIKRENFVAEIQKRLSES
Method in brief: (§1)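 First, cells are exposed to electrophilic probes in situ. Next, lysates are labeled with IA-DTB (1 h, ambient temperature), reduced, alkylated and trypsin-digested. Then, IA-DTB peptides are enriched on streptavidin, TMT-labeled and analyzed, with ratios taken against DMSO channels.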

[2] = biological target: T2, SLC12A8_C660 (Homo sapiens, UniProt A0AV02); test: IA-DTB cysteine engagement; type: binding; details: 22Rv1 cells, 20 μM probe, 1 h, relative to DMSO
T2 construct: endogenous in cells; host or cells: 22Rv1
T2 sequence (A0AV02 1-714): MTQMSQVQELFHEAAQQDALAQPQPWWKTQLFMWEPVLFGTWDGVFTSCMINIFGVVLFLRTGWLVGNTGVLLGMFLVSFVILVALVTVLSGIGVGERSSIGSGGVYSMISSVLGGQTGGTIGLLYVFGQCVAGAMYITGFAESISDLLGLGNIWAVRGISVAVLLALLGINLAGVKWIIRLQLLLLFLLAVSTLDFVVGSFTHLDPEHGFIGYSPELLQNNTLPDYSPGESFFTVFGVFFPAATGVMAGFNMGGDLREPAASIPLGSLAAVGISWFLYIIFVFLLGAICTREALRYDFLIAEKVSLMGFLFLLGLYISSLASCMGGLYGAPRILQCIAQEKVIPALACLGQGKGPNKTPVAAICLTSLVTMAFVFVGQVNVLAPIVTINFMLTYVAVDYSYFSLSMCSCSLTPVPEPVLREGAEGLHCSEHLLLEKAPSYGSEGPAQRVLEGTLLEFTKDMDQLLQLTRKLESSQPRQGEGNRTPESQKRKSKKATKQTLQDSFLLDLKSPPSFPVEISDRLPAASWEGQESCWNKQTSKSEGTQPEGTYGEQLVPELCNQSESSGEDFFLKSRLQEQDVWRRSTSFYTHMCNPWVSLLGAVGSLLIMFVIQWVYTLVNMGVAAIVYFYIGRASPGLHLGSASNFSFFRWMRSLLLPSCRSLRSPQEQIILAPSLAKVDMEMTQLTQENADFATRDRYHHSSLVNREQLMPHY
Method in brief: as §1

Row | % engagement HARS2_C173 [1] [%] | % engagement SLC12A8_C660 [2] [%] | SMILES
1 | 35.75 | 68.5 | C=CC(=O)N1C[C@H](c2ccc(Br)cc2)[C@H]1C(=O)Nc1cccc2cccnc12 [MY-3B, (2S,3S)-1-acryloyl-3-(4-bromophenyl)-N-(quinolin-8-yl)azetidine-2-carboxamide]
2 | 63.75 | 61.5 | C=CC(=O)N1C[C@H](c2ccc(Br)cc2)[C@@H]1C(=O)Nc1cccc2cccnc12 [MY-1B, (2R,3S)-1-acryloyl-3-(4-bromophenyl)-N-(quinolin-8-yl)azetidine-2-carboxamide]
3 | 35.25 | 41 | C=CC(=O)N1C[C@H](c2ccc(Br)cc2)[C@H]1C(=O)Nc1cccc2cccnc12 [MY-3A, (2S,3S)-1-acryloyl-3-(4-bromophenyl)-N-(quinolin-8-yl)azetidine-2-carboxamide]
4 | 84.75 | 77.5 | C=CC(=O)N1C[C@@H](c2ccc(Br)cc2)[C@H]1C(=O)Nc1cccc2cccnc12 [MY-1A, (2S,3R)-1-acryloyl-3-(4-bromophenyl)-N-(quinolin-8-yl)azetidine-2-carboxamide]
